Data published in US11147272B2, “Pyridone compounds and agricultural and horticultural fungicides comprising the same as active ingredients” (MITSUI CHEMICALS AGRO, INC., priority 2017, dated 2021).

Experiments:
[1] = system: Plasmopara viticola; test: Test Example G: Downy mildew on vine; settings: 250 ppm spray; for Test G control value class: Downy mildew on vine (Neomuscat), 2.5 ml/pot, assessed 7 to 10 days after inoculation; for Test G control value: Downy mildew on vine, 7 to 10 days after inoculation
[2] = system: Botrytis cinerea; test: Test Example B: Gray mold on tomato; settings: Gray mold on tomato; for Test B control value class: class of control value; for Test B control value: control value class
Protocol: Seeds of a test plant (tomato variety: Oogata Fukuju) were planted and cultivated until three to five first leaves (true leaves) appeared. In the test, the inventive compounds were dissolved into dimethyl sulfoxide-methanol mixture solution (volume ratio: 9/1), and the resultant solutions were diluted with well water to a concentration of 250 ppm to obtain the drug solutions. The drug solutions were sprayed to the test plant (2.5 ml/pot). After the drug solutions dried, a conidial suspension (4-8×10^5 conidia/ml) of Botrytis cinerea was inoculated to the plant by spraying. After the inoculation, the plant was kept in a mist chamber at room temperature of 20 to 23° C. for about 48 hours to promote the onset of disease. The degrees of disease development were investigated 2 to 3 days after the inoculation, and the effectiveness of the drug solutions was evaluated.
In Test Examples described above, the degrees of disease development were evaluated in increments of 0.05 from 0 (as no incidence of disease) to 3 (as the degree of disease development in an untreated plant group). Further, control values were calculated using the following equation based on the degree of disease development.
n=Degree of disease development in each treated group
In the table, H: more than 50% control value, L: 50% or less control value, and nt: not tested.

[3] = system: Colletotrichum orbiculare; test: Test Example H: Anthracnose on cucumber; settings: 250 ppm spray; for Test H control value class: Anthracnose on cucumber (Sagami Hanjiro), 2.5 ml/pot, assessed 6 to 10 days after inoculation; for Test H control value: Anthracnose on cucumber, 6 to 10 days after inoculation
[4] = system: Phytophthora infestans; test: whole plant or invertebrate; assay type: in vivo; settings: Late blight on tomato; for Test F control value class: class of control value; for Test F control value: control value class
[5] = system: Puccinia recondita; test: Test Example E: Brown rust on wheat; assay type: in vivo; settings: Brown rust on wheat; for Test E control value class: class of control value; for Test E control value: control value class
[6] = system: Alternaia brassicicola; test: Test Example C: Alternaria sooty spot on cabbage; assay type: in vivo; settings: Alternaria sooty spot on cabbage; for Test C control value class: class of control value; for Test C control value: control value class
Source text: Seeds of a test plant (cabbage variety: Shikidori) were planted and cultivated until the cotyledons extended.
<Control Value> Control value=100{1−(n/3)}

[7] = system: Magnaporthe grisea; test: whole plant or invertebrate; assay type: in vivo; settings: Blast on rice; for Test A control value class: class of control value; for Test A control value: control value class
[8] = system: Blumeria graminis f. sp. hordei; test: Test Example D: Powdery mildew on barley; settings: Powdery mildew on barley; for Test D control value class: class of control value; for Test D control value: control value class

Compound | Test G control value class [1] | Test B control value class [2] | Test H control value class [3] | Test F control value class [4] | Test E control value class [5] | Test C control value class [6] | Test A control value class [7] | Test D control value class [8] | Test G control value [1] | Test B control value [2] | Test H control value [3] | Test F control value [4] | Test E control value [5] | Test C control value [6] | Test A control value [7] | Test D control value [8]
CCn1c(-c2ccc(Br)cc2)c(CC(C)C)cc(Br)c1=O [compound 178] | L (50% or less control value) | H (more than 50% control value) | L (50% or less control value) | L (50% or less control value) | H (more than 50% control value) | H (more than 50% control value) | L (50% or less control value) | L (50% or less control value) |  |  |  |  |  |  |  | 
CCn1c(-c2c(F)cc(OC)cc2F)c(C(=O)C(C)(C)C)cc(Cl)c1=O [compound 179] | L (50% or less control value) | H (more than 50% control value) | H (more than 50% control value) | L (50% or less control value) | H (more than 50% control value) | H (more than 50% control value) | H (more than 50% control value) | H (more than 50% control value) |  |  |  |  |  |  |  | 
CCn1c(-c2ccc(F)cc2Cl)c(C2CCCCC2)cc(Cl)c1=O [compound 181] | H (more than 50% control value) | H (more than 50% control value) | H (more than 50% control value) | L (50% or less control value) | H (more than 50% control value) | H (more than 50% control value) | H (more than 50% control value) | H (more than 50% control value) |  |  |  |  |  |  |  | 
CCn1c(-c2ccc(F)cc2Cl)c(C2CCCCC2)cc(Br)c1=O [compound 182] | L (50% or less control value) | H (more than 50% control value) | L (50% or less control value) | L (50% or less control value) | H (more than 50% control value) | H (more than 50% control value) | H (more than 50% control value) | H (more than 50% control value) |  |  |  |  |  |  |  | 
CCc1ccc(=O)n(CC)c1-c1ccc(F)cc1Cl [compound 185] |  |  |  |  |  |  |  |  | L (50% or less control value) | H (more than 50% control value) | L (50% or less control value) | L (50% or less control value) | H (more than 50% control value) | H (more than 50% control value) | L (50% or less control value) | H (more than 50% control value)
CCc1cc(Br)c(=O)n(CC)c1-c1ccc(F)cc1Cl [compound 186] |  |  |  |  |  |  |  |  | H (more than 50% control value) | H (more than 50% control value) | H (more than 50% control value) | L (50% or less control value) | H (more than 50% control value) | H (more than 50% control value) | H (more than 50% control value) | H (more than 50% control value)
CCc1cc(Cl)c(=O)n(CC)c1-c1ccc(F)cc1Cl [compound 189] |  |  |  |  |  |  |  |  | H (more than 50% control value) | H (more than 50% control value) | H (more than 50% control value) | L (50% or less control value) | H (more than 50% control value) | H (more than 50% control value) | H (more than 50% control value) | H (more than 50% control value)
CCCc1ccc(=O)n(CC)c1-c1ccc(F)cc1Cl [compound 190] |  |  |  |  |  |  |  |  | H (more than 50% control value) | H (more than 50% control value) | L (50% or less control value) | L (50% or less control value) | H (more than 50% control value) | H (more than 50% control value) | H (more than 50% control value) | H (more than 50% control value)
CCCc1cc(Cl)c(=O)n(CC)c1-c1ccc(F)cc1Cl [compound 191] |  |  |  |  |  |  |  |  | H (more than 50% control value) | H (more than 50% control value) | H (more than 50% control value) | L (50% or less control value) | H (more than 50% control value) | H (more than 50% control value) | H (more than 50% control value) | H (more than 50% control value)
CCCc1cc(Br)c(=O)n(CC)c1-c1ccc(F)cc1Cl [compound 192] |  |  |  |  |  |  |  |  | L (50% or less control value) | H (more than 50% control value) | H (more than 50% control value) | L (50% or less control value) | H (more than 50% control value) | H (more than 50% control value) | H (more than 50% control value) | H (more than 50% control value)
CCn1c(-c2ccc(O)cc2)c(CC(C)C)ccc1=O [compound 193] |  |  |  |  |  |  |  |  | L (50% or less control value) | L (50% or less control value) | L (50% or less control value) | L (50% or less control value) | L (50% or less control value) | H (more than 50% control value) | L (50% or less control value) | L (50% or less control value)
CCn1c(-c2ccc(OC)cc2)c(CC(C)C)ccc1=O [compound 194] |  |  |  |  |  |  |  |  | L (50% or less control value) | H (more than 50% control value) | L (50% or less control value) | L (50% or less control value) | H (more than 50% control value) | L (50% or less control value) | H (more than 50% control value) | H (more than 50% control value)
CCn1c(-c2ccc(OC)cc2)c(CC(C)C)cc(Cl)c1=O [compound 195] |  |  |  |  |  |  |  |  | L (50% or less control value) | H (more than 50% control value) | H (more than 50% control value) | L (50% or less control value) | H (more than 50% control value) | H (more than 50% control value) | H (more than 50% control value) | H (more than 50% control value)
CCn1c(-c2ccc(OC)cc2)c(CC(C)C)cc(Br)c1=O [compound 196] |  |  |  |  |  |  |  |  | L (50% or less control value) | H (more than 50% control value) | H (more than 50% control value) | L (50% or less control value) | H (more than 50% control value) | H (more than 50% control value) | H (more than 50% control value) | L (50% or less control value)
C=C(c1cc(Cl)c(=O)n(CC)c1-c1c(F)cccc1F)C(C)C [compound 197] |  |  |  |  |  |  |  |  | H (more than 50% control value) | H (more than 50% control value) | H (more than 50% control value) | L (50% or less control value) | H (more than 50% control value) | H (more than 50% control value) | H (more than 50% control value) | H (more than 50% control value)
CCn1c(-c2c(F)cccc2F)c(C(C)C(C)C)cc(Cl)c1=O (stereo not shown) [compound 198] |  |  |  |  |  |  |  |  | L (50% or less control value) | H (more than 50% control value) | H (more than 50% control value) | L (50% or less control value) | H (more than 50% control value) | H (more than 50% control value) | H (more than 50% control value) | H (more than 50% control value)
CCn1c(-c2ccc(F)cc2Br)c(CC(C)C)ccc1=O [compound 199] |  |  |  |  |  |  |  |  | H (more than 50% control value) | H (more than 50% control value) | H (more than 50% control value) | H (more than 50% control value) | H (more than 50% control value) | H (more than 50% control value) | H (more than 50% control value) | H (more than 50% control value)
